Patent publication US6204067A, “Methods of identifying modulators of the estrogen receptor” (Board of Trustees Operating Michigan State University, priority 1999, dated 2001)

Test system: microsomes isolated from MCF-7/ADR cells
Assay: In vitro acidification of MCF-7/ADR microsomes (acridine orange quenching)
Assay type: biochemical
Experimental: Cells were grown in Minimal Essential. Medium supplemented with 10% Fetal Bovine Serum to confluence in 10 level Cell Factories (Nunc, Naperville, Ill.), trypsinized, washed 3× with cold PBS and lysed with a Dounce homogenizer (Pestle A) in 0.25 M sucrose, 20 mM HEPES (pH 7.4), 1 mM DTT, 1 mM EDTA, and 1× protease inhibitor mix (1 μg/ml leupeptin, 1 μ/ml pepstatin A, 1 μg/ml aprotinin, and 16 μM PMSF mixed to 100× before use). The homogenate was centrifuged twice for 10 minutes at 3000×g to remove unbroken cells and nuclei. The supernatant was layered over 20 ml of 0.5 M sucrose (20 mM HEPES (pH 7.4), 1 mM DTT, 1 mM EDTA, 1× protease inhibitor mix) and 1 ml of 2 M sucrose and centrifuged for 1 hour at 100,000 g (Beckman Ti60 Rotor). Microsomes are collected at the 0.5M and 2M interface.
To monitor acidification of the total microsomal fraction, the quenching of AO fluorescence was monitored essentially as described previously [Barasch et al., Nature 352:70-73 (1991)]. Acidic vesicles accumulate AO to high concentrations resulting in the self quenching of the dye and a decrease of the overall fluorescence. Fluorescence was measured on an SLM Aminco-Bowman series 2 luminescence spectrometer with λex =488 nm and λem =530 nm Microsomes (80 μg protein) were suspended in 2.5 ml vesicle buffer (125 mM KCl, 5 mM MgCl2, 20 mM HEPES (pH 7.4), 1 mM DTT, 1 mM EDTA, 2 mM NaN3), with 6 μM AO (5 mM stock in H2 O) in a cuvet. […] After equilibration for 30 minutes at 25° C. 1 mM Tris-ATP was added to begin acidification (100 mM stock, titrated to pH 7.4 with 1 M Tris-base before use). Twenty minutes later, 2.5 μM of nigericin (10 mM stock in EtOH) was added to dissipate any ΔpH formation.
Acridine orange (AO) was used as a probe for lumenal acidification. As vesicles acidify, they accumulate AO to self-quenching concentrations, and deplete the extra-vesicular free AO, resulting in a decrease in total fluorescence. Acidification was initiated by the addition of ATP to a purified microsomal fraction in the absence of cytosol (FIG. 1A, at t=300 sec). […] Nigericin, a K^+ /H^+ exchanger that rapidly dissipates pH gradients, was added at the end of each reaction (t=1500 seconds).

## CC/C(=C(\c1ccccc1)c1ccc(OCCN(C)C)cc1)c1ccccc1 [tamoxifen]
Added 10 minutes after ATP, 8 μM tamoxifen (FIG. 1B)
  time to almost complete dissipation of the pH gradient: ≤ 5 minutes
Added 10 minutes after ATP, tamoxifen 8 μM, bafilomycin A1 100 nM
  rate of dissipation of pre-existing pH gradient: rapidly reversed acidification
pre-treated 30 minutes
  concentration at which acidification was totally blocked: 8 µM
  concentration at which inhibition of acidification was evident: 1 µM
